Patent US20200165194A1, “ADDITIVE COMPOSITION FOR CULTURE MEDIUM, ADDITIVE COMPOUND FOR CULTURE MEDIUM, AND METHOD FOR CULTURE OF CELLS OR TISSUE USING SAME” (NISSAN CHEMICAL CORPORATION, priority 2017, published 2020)
Read-outs that look alike come from different tables or passages of the source.

Key:
[1] = system: Bone marrow-derived human mesenchymal stem cells (BM-hMSC); test: Human mesenchymal stem cell-2: 3D, EZSPHERE and 2D culture, ATP assay (Experimental Example 10); format: cell-based; details: for viability at 1 µM / viability at 5 µM / viability at 10 µM / viability at 20 µM: Homo sapiens, Mesenchymal stem cells, 96 h, read-out: relative value of RLU (number of viable cells), BM-hMSC, 4 days, non-addition = 100%
[2] = system: Human umbilical vein endothelial cells; test: Vascular endothelial cell, 3D culture, ATP assay (Experimental Example 14); format: cell-based; details: human umbilical vein endothelial cells under three-dimensional conditions
[3] = system: Cercopithecus aethiops kidney epithelium-derived cell line Vero; test: Animal cell lines, 3D culture, ATP assay (Experimental Example 15); format: cell-based; details: for number of viable cells (RLU), relative value to control (100%): 4 days
[4] = system: Chinese hamster ovary-derived cell line CHO-K1; test: as above; format: cell-based; details: 4 days
[5] = system: plural animal cell lines; test: Animal cell lines, summary over the cell lines (Experimental Example 15); format: cell-based; details: animal cell lines under three-dimensional conditions
[6] = system: human ovarian cancer cell line SKOV3; test: Action on SKOV3 cell-2: 3D (deacylated gellan gum) and 2D culture, EGF medium, ATP assay (Experimental Example 3); details: for viability at 1 µM / viability at 5 µM / viability at 10 µM / viability at 20 µM: Homo sapiens, SK-OV-3, 96 h, 4 days, compound non-addition = 100%
[7] = read-out: relative value of RLU (number of viable cells), 2D single layer culture
[8] = read-out: relative value of RLU (number of viable cells), 3D culture (deacylated gellan gum)

## CC/C(=N\NC(=O)NCc1cccc(O)c1)c1ccc(O)c(C)c1O [k-1:J-1]
[1]; 2D
  viability at 1 µM: 107%
  viability at 5 µM: 121%
  viability at 10 µM: 146%
  viability at 20 µM: 157%
[1]; 3D (deacylated gellan gum)
  viability at 1 µM: 132%
  viability at 5 µM: 330%
  viability at 10 µM: 579%
  viability at 20 µM: 773%
[1]; EZSPHERE plate
  viability at 1 µM: 149%
  viability at 5 µM: 241%
  viability at 10 µM: 321%
  viability at 20 µM: 231%
[1]; three-dimensional cell culture conditions
  proliferation activity (in words): promoted proliferation activity of BM-hMSC
[1]; two-dimensional cell culture conditions
  proliferation activity (in words): promoted proliferation activity of hMSC
[2]
  proliferation activity (in words): promoted proliferation activity in human umbilical vein endothelial cells
[3]; Chlorocebus sabaeus, 96 h, read-out: number of viable cells (RLU), relative value to control (100%)
  viability at 5 µM: 120 to 150%
[3]; low attachment U-bottom plate, 5 μM
  number of viable cells (RLU), relative value to control (100%): ⊙
[3]; low attachment U-bottom plate, 10 μM
  number of viable cells (RLU), relative value to control (100%): ⊙
[3]; low attachment flat bottom plate (deacylated gellan gum-containing medium), 10 μM
  number of viable cells (RLU), relative value to control (100%): ⊙
[4]; CHO-K1, low attachment flat bottom plate (deacylated gellan gum-containing medium), 10 μM
  number of viable cells (RLU), relative value to control (100%): ⊙
[4]; Cricetulus griseus, CHO-K1, 96 h, read-out: number of viable cells (RLU), relative value to control (100%), CHO-K1, low attachment U-bottom plate
  viability at 5 µM: < 119%
[4]; Cricetulus griseus, CHO-K1, 96 h, read-out: number of viable cells (RLU), relative value to control (100%), CHO-K1, low attachment U-bottom plate, 10 μM
  viability at 10 µM: < 119%
[4]; Cricetulus griseus, CHO-K1, 96 h, read-out: number of viable cells (RLU), relative value to control (100%), CHO-K1, low attachment flat bottom plate (deacylated gellan gum-containing medium)
  viability at 5 µM: 120 to 150%
[5]
  proliferation activity (in words): promoted proliferation activity in plural animal cell lines
[6]; [7]
  viability at 1 µM: 93%
  viability at 5 µM: 96%
  viability at 10 µM: 97%
  viability at 20 µM: 102%
[6]; [8]
  viability at 1 µM: 116%
  viability at 5 µM: 170%
  viability at 10 µM: 186%
  viability at 20 µM: 173%
[6]; single layer culture (2D) of SKOV3 cells
  cell proliferation promoting effect (in words): a favorable cell proliferation promoting effect was not observed
[6]; three-dimensional culture (3D) of SKOV3 cells
  cell proliferation promoting effect (in words): exhibited cell proliferation promoting effect at a wide concentration range
